Test system: 966289-007-R4-J1-PDC complex spheroid viability
Assay: Anticancer human tumor 966289-007-R4-J1-PDC patient-derived pancreatic adenocarcinoma cell line growth inhibition [GQUAD]
Conditions: for IC50: curve of first compound; for viability, T/C: stronger effect = lower value
Excerpt: DNA G-quadruplex Stabilizer Agents in Combinations in Complex Spheroids
A high-throughput screen of multi-cell type tumor spheroids was designed to identify active combinations of DNA G-quadruplex stabilizer agents and targeted small molecules. Complex spheroids include a stromal component modeled by human endothelial cells (HUVEC) and fibroblasts modeled by human mesenchymal stem cells (MSCs). The concentration ranges selected for each drug and investigational agent were based upon clinically achievable concentrations if the clinical Cmax of the agent was known.
Compounds. The drugs and investigational agents: pidnarulex (CX-5461; NSC782164), APTO-253 (NSC789042), BRACO-19 (NSC847499), peposertib (NSC802822), ceralasertib (NSC780249), elimusertib (NSC800525), camonsertib (NSC841442), AZD-1390 (NSC803789), olaparib (NSC753686), talazoparib (NSC767125), ART-558 (NSC835418), sotorasib (NSC818433), MRTX-1133 (NSC836407), SN-38 (NSC673596), topotecan (NSC609699), etoposide (NSC141540), doxorubicin (NSC123127), gemcitabine (NSC613327), 5-fluorouracil (NSC19893), paclitaxel (NSC125973), vemurafenib (NSC761431), panobinostat (NSC761190), R-306465 (JNJ-16241199; NSC773264), adavosertib (NSC754352), TP-3654 (NSC805149), carboplatin (NSC241240), KSQ-4279 (NSC840948), and staurosporine (NSC755774) were obtained from the National Cancer Institute (NCI) Developmental Therapeutics Program Chemical Repository (34). The FDA-approved anticancer drug set is available from the NCI Developmental Therapeutics Program. […] The stock solutions were prepared in dimethyl sulfoxide (DMSO, Sigma-Aldrich, St. Louis, MO, cat. D2650) at 800-fold the tested concentration and stored at -70 degrees C prior to their use. All drugs and investigational agents were tested over a range starting from a high concentration at or near the clinical Cmax and decreasing in half-log increments. If the clinical Cmax for an agent had not been determined, the highest concentration tested was 10 microM.
2.3 Cell Culture. All cells were maintained in an incubator at 37 degrees C and 5% CO2 with 95% humidity. The PDC lines were cultured according to standard operating procedures established by the NCI PDMR. All PDCs were thawed and cultured in Matrigel-coated flasks prepared with a working solution of 1X Ham's F-12 nutrient mix, without supplementation (Invitrogen, cat. 11765054), 100 U/mL penicillin-streptomycin (Invitrogen, cat. 15140122), and 2.5% Matrigel (Corning Inc., cat. 354248) for the first three passages. The 857933-349-R-J2-PDC line was cultured in 6C/Colon 1B media, which includes advanced DMEM/F-12 (Thermo Fisher Scientific, cat. 12634028), 10 mM HEPES (Thermo Fisher Scientific, cat. 15630080), 1X GlutaMAX supplement (Thermo Fisher Scientific, cat. 35050061), 0.1 mg/mL primocin (InvivoGen, cat. ant-pm-2), 10% defined fetal bovine serum, heat inactivated (HyClone Laboratories Inc., cat. SH30070.03HI), 50% L-WRN conditioned media (ATCC, cat. CRL-3276), 1.25 mM N-Acetyl-L-cysteine (Sigma-Aldrich, cat. A9165), 10 mM nicotinamide (Sigma-Aldrich, cat. N0636), 1X B-27 supplement (Thermo Fisher Scientific, cat. 17504044), 1X N-2 supplement (Thermo Fisher Scientific, cat. 17502048), 10 microM Y-27632 dihydrochloride (Tocris Bioscience, cat. 1254), and 50 ng/mL human EGF recombinant protein (Thermo Fisher Scientific, cat. PHG0311). The 485176-168-R4-J1-PDC line was cultured in Panc media, which includes all 6C/Colon 1B media components plus 100 ng/mL human FGF-10 (Thermo Fisher Scientific, cat. 100-26), 500 nM SB-431542 (Selleckchem, cat. S1067), and gastrin (Tocris, cat. 3006).
[…]
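Further: spheroids exposed to the agents for seven days before readout.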
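Wherever viability, T/C is given: percent viability relative to DMSO vehicle control wells taken as 100%.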

CC1COCCN1c1cc(C2(S(C)(=N)=O)CC2)nc(-c2ccnc3[nH]ccc23)n1 (configuration not stated) + CN(C)c1ccc(Nc2c3ccc(NC(=O)CCN4CCCC4)cc3nc3cc(NC(=O)CCN4CCCC4)ccc23)cc1
IC50 (second compound 0.0316 µM): 4.69 µM
IC50 (second compound 0.1 µM): 4.36 µM
IC50 (second compound 0.316 µM): 4.25 µM
IC50 (second compound 1 µM): 4.42 µM
IC50 (second compound 3.16 µM): 3.93 µM
IC50 (second compound 10 µM): 2 µM
viability, T/C (second compound 0.0316 µM, first compound 0.0316 µM): 106%
viability, T/C (second compound 0.0316 µM, first compound 0.1 µM): 102%
viability, T/C (second compound 0.0316 µM, first compound 0.316 µM): 102%
viability, T/C (second compound 0.0316 µM, first compound 1 µM): 101%
viability, T/C (second compound 0.0316 µM, first compound 3.16 µM): 69.8%
viability, T/C (second compound 0.0316 µM, first compound 10 µM): 12.3%
viability, T/C (second compound 0.1 µM, first compound 0.0316 µM): 100%
viability, T/C (second compound 0.1 µM, first compound 0.1 µM): 101%
viability, T/C (second compound 0.1 µM, first compound 0.316 µM): 102%
viability, T/C (second compound 0.1 µM, first compound 1 µM): 105%
viability, T/C (second compound 0.1 µM, first compound 3.16 µM): 64.7%
viability, T/C (second compound 0.1 µM, first compound 10 µM): 12.1%
viability, T/C (second compound 0.316 µM, first compound 0.0316 µM): 99.8%
viability, T/C (second compound 0.316 µM, first compound 0.1 µM): 102%
viability, T/C (second compound 0.316 µM, first compound 0.316 µM): 104%
viability, T/C (second compound 0.316 µM, first compound 1 µM): 99.8%
viability, T/C (second compound 0.316 µM, first compound 3.16 µM): 62.6%
viability, T/C (second compound 0.316 µM, first compound 10 µM): 12.8%
viability, T/C (second compound 1 µM, first compound 0.0316 µM): 89.5%
viability, T/C (second compound 1 µM, first compound 0.1 µM): 97%
viability, T/C (second compound 1 µM, first compound 0.316 µM): 104%
viability, T/C (second compound 1 µM, first compound 1 µM): 103%
viability, T/C (second compound 1 µM, first compound 3.16 µM): 65.5%
viability, T/C (second compound 1 µM, first compound 10 µM): 12.3%
viability, T/C (second compound 3.16 µM, first compound 0.0316 µM): 99.8%
viability, T/C (second compound 3.16 µM, first compound 0.1 µM): 100%
viability, T/C (second compound 3.16 µM, first compound 0.316 µM): 106%
viability, T/C (second compound 3.16 µM, first compound 1 µM): 104%
viability, T/C (second compound 3.16 µM, first compound 3.16 µM): 58.8%
viability, T/C (second compound 3.16 µM, first compound 10 µM): 12.4%
viability, T/C (second compound 10 µM, first compound 0.0316 µM): 104%
viability, T/C (second compound 10 µM, first compound 0.1 µM): 101%
viability, T/C (second compound 10 µM, first compound 0.316 µM): 101%
viability, T/C (second compound 10 µM, first compound 1 µM): 94%
viability, T/C (second compound 10 µM, first compound 3.16 µM): 20.9%
viability, T/C (second compound 10 µM, first compound 10 µM): 4.7%

Source: PubChem BioAssay AID2060488 (Molecular Pharmacology Branch, DTP, NCI, 2025)
